Active and inactive are the calls of the source. No cut-off for these calls is given here.
Tests used:
HUVEC [1] = experiment: Cytoprotective activity against ox-LDL induced cell damage in human HUVEC cells assessed as increase in cell viability at 50 uM preincubated for 10 mins followed by ox-LDL stimulation measured after 24 hrs by MTT assay; format: functional, cell-based
HUVEC [2] = experiment: Cytotoxicity against human HUVEC cells assessed as reduction in cell viability at 10 to 100 uM by MTT assay; format: cell-based; conditions: dose 10-100 µM
RAW264.7 [3] = experiment: (§1) Anti-atherosclerotic activity in mouse RAW264.7 cells assessed as decrease in ox-LDL induced intracellular lipid accumulation by measuring reduction in free cholesterol level at 50 uM preincubated for 10 mins followed by ox-LDL stimulation and measured after 24 hrs by colorimetric method relative to control; format: functional; conditions: RAW264.7, 10 min
[4] = Prodrug release in phosphate buffer containing L-cysteine assessed as H2S release by measuring H2S releasing half-life at 60 uM by methylene blue method; format: ADME
H9c2 = experiment: Cytotoxicity against rat H9c2 cells assessed as reduction in cell viability after 48 hrs by MTT assay; format: cell-based; conditions: H9c2, 48 h
HUVEC [5] = experiment: Cytotoxicity against human HUVEC cells assessed as reduction in cell viability after 48 hrs by MTT assay; format: cell-based
RAW264.7 [6] = experiment: Cytotoxicity against mouse RAW264.7 cells assessed as reduction in cell viability after 48 hrs by MTT assay; format: cell-based; conditions: RAW264.7, 48 h
WI-38 = experiment: Cytotoxicity against human WI38 cells assessed as reduction in cell viability after 48 hrs by MTT assay; format: cell-based; conditions: WI-38, 48 h
HUVEC [7] = experiment: Cytoprotective activity against ox-LDL induced cell damage in human HUVEC cells assessed as cell viability at 100 uM preincubated for 10 mins followed by ox-LDL stimulation measured after 24 hrs by MTT assay (reference value: 73.1%); format: functional; conditions: read-out: Activity
HUVEC [8] = experiment: Anti-atherosclerotic activity against ox-LDL induced cell damage in human HUVEC cells assessed as reduction in nuclear pyknosis and apoptotic bodies formation preincubated for 10 mins followed by ox-LDL stimulation and measured after 24 hrs by Hoechst 33342 staining based fluorescence microscopy; format: functional
HUVEC [9] = experiment: Anti-atherosclerotic activity against ox-LDL induced cell damage in human HUVEC cells assessed as reduction in late apoptotic and death cells preincubated for 10 mins followed by ox-LDL stimulation and measured after 24 hrs by PI staining based fluorescence microscopic analysis; format: functional
HUVEC [10] = experiment: Anti-atherosclerotic activity against ox-LDL induced cell damage in human HUVEC cells assessed as reduction in early apoptotic cells by measuring increase in mitochondrial membrane potential preincubated for 10 mins followed by ox-LDL stimulation and measured after 24 hrs by JC-1 staining based fluorescence microscopic analysis; format: functional
RAW264.7 [11] = experiment: Antioxidant activity in mouse RAW264.7 cells assessed as reduction in ox-LDL-induced oxidative stress by measuring increase in SOD level at 50 uM preincubated for 10 mins followed by ox-LDL stimulation and measured after 24 hrs relative to control; format: functional; design: scale not given: the % may be the effect or the level left
HUVEC [12] = experiment: Anti-atherosclerotic activity against ox-LDL induced apoptosis in human HUVEC cells assessed as reduction in Bax expression at 10 to 50 uM preincubated for 10 mins followed by ox-LDL stimulation and measured after 24 hrs by ELISA; format: functional, cell-based; conditions: dose microM 10-50, time 10.0 min
HUVEC [13] = experiment: Anti-atherosclerotic activity against ox-LDL induced apoptosis in human HUVEC cells assessed as reduction in caspase-3 expression at 10 to 50 uM preincubated for 10 mins followed by ox-LDL stimulation and measured after 24 hrs by ELISA; format: functional, cell-based; conditions: dose microM 10-50, time 10.0 min
HUVEC [14] = experiment: Anti-atherosclerotic activity against ox-LDL induced apoptosis in human HUVEC cells assessed as increase in bcl-2 expression at 50 uM preincubated for 10 mins followed by ox-LDL stimulation and measured after 24 hrs by ELISA; format: functional
RAW264.7 [15] = experiment: Inhibition of macrophage foam cell formation in mouse RAW264.7 cells assessed as reduction in ox-LDL induced red lipid droplets formation preincubated for 10 mins followed by ox-LDL stimulation and measured after 24 hrs by oil red O staining based inverted microscopy analysis; format: functional; conditions: dose microM 10-50, time 10.0 min
RAW264.7 [16] = experiment: Inhibition of macrophage foam cell formation in mouse RAW264.7 cells assessed as reduction in ox-LDL induced red lipid droplets formation at 50 uM preincubated for 10 mins followed by ox-LDL stimulation and measured after 24 hrs by oil red O staining based inverted microscopy analysis; format: functional
RAW264.7 [17] = experiment: as §1, with “total” for “free”; format: functional; conditions: RAW264.7, 10 min
RAW264.7 [18] = experiment: Anti-atherosclerotic activity in mouse RAW264.7 cells assessed as decrease in ox-LDL induced intracellular lipid accumulation by measuring reduction in CE/TC ratio at 50 uM preincubated for 10 mins followed by ox-LDL stimulation and measured after 24 hrs by colorimetric method relative to control; format: functional; conditions: RAW264.7, 10 min
RAW264.7 [19] = experiment: Antioxidant activity in mouse RAW264.7 cells assessed as reduction in ox-LDL induced ROS accumulation at 10 to 50 uM preincubated for 10 mins followed by ox-LDL stimulation and measured after 24 hrs by DCFH-DA staining based fluorescence microscopic analysis; format: functional, cell-based; conditions: dose microM 10-50, time 10.0 min
RAW264.7 [20] = experiment: Antioxidant activity in mouse RAW264.7 cells assessed as reduction in ox-LDL induced oxidative stress by measuring decrease in MDA level at 50 uM preincubated for 10 mins followed by ox-LDL stimulation and measured after 24 hrs relative to control; format: functional; conditions: RAW264.7, 10 min
RAW264.7 [21] = experiment: Anti-inflammatory activity in mouse RAW264.7 cells assessed as decrease in ox-LDL induced inflammatory reaction by measuring decrease in TNF-alpha production preincubated for 10 mins followed by ox-LDL stimulation and measured after 24 hrs; format: functional, cell-based; conditions: dose microM 10-50, time 10.0 min
RAW264.7 [22] = experiment: Anti-inflammatory activity in mouse RAW264.7 cells assessed as decrease in ox-LDL induced inflammatory reaction by measuring increase in IL-10 production preincubated for 10 mins followed by ox-LDL stimulation and measured after 24 hrs; format: functional, cell-based; conditions: dose microM 10-50, time 10.0 min
RAW264.7 [23] = experiment: Anti-atherosclerotic activity in mouse RAW264.7 cells assessed as decrease in ox-LDL induced PI3K protein expression at 10 to 50 uM preincubated for 10 mins followed by ox-LDL stimulation and measured after 24 hrs by Western blot analysis; format: functional, cell-based; conditions: dose microM 10-50, time 10.0 min
RAW264.7 [24] = experiment: Anti-atherosclerotic activity in mouse RAW264.7 cells assessed as decrease in ox-LDL induced AKT protein expression at 10 to 50 uM preincubated for 10 mins followed by ox-LDL stimulation and measured after 24 hrs by Western blot analysis; format: functional, cell-based; conditions: dose microM 10-50, time 10.0 min
RAW264.7 [25] = experiment: Anti-atherosclerotic activity in mouse RAW264.7 cells assessed as decrease in ox-LDL induced NFkappaB protein expression at 10 to 50 uM preincubated for 10 mins followed by ox-LDL stimulation and measured after 24 hrs by Western blot analysis; format: functional, cell-based; conditions: dose microM 10-50, time 10.0 min

For `CC(C)(Oc1ccc(Cl)cc1)C(=O)OCCCOC(=O)CCCCC1CCSS1` (configuration not stated), the Activity (HUVEC [1]) was “Active”, the Activity (HUVEC [2]) was “Non-Toxic” and the inhibition at 50 µM (RAW264.7 [3]) was 25.4%. It also gave a t1/2 [4] of 21.3 min, an IC50 (H9c2) greater than 800 µM and an IC50 (HUVEC [5]) greater than 800 µM. The IC50 (RAW264.7 [6]) was greater than 800 µM, the IC50 (WI-38) was greater than 800 µM and the viability at 100 µM (HUVEC [7]) was 89.2%. The Activity (HUVEC [8]) was “Active”, the Activity (HUVEC [9]) was “Active” and the Activity (HUVEC [10]) was “Active”. The Activity (RAW264.7 [11]) was 45.4%, the Activity (HUVEC [12]) was “Active” and the Activity (HUVEC [13]) was “Active”. For the same compound, the Activity (HUVEC [14]) was 31.9%, the inhibition (RAW264.7 [15]) was “Dose-dependent effect” and the inhibition (RAW264.7 [16]) was “Active”. The inhibition at 50 µM (RAW264.7 [17]) was 52.4%, the inhibition at 50 µM (RAW264.7 [18]) was 30.9% and the Activity (RAW264.7 [19]) was “Active”. For the same compound, the inhibition at 50 µM (RAW264.7 [20]) was 41%, the Activity (RAW264.7 [21]) was “Dose-dependent effect” and the Activity (RAW264.7 [22]) was “Dose-dependent effect”. The Activity (RAW264.7 [23]) was “Active”, the Activity (RAW264.7 [24]) was “Active” and the Activity (RAW264.7 [25]) was “Active”.

Source: ChEMBL document CHEMBL4665663, “Anti-atherosclerosis effect of HS donors based on nicotinic acid and chlorfibrate structures” (Bioorg Med Chem, 2019)
